# Patent US12280088B2, “Dry powder formulation of caveolin-1 peptides and methods of use thereof” (BOARD OF REGENTS, THE UNIVERSITY OF TEXAS SYSTEM, priority 2018, dated 2025)
# Peptide text beside a SMILES is read from it.
# Key:
# [1] = Stability study of milled CSP7 (ammonium counterion): aerodynamic particle size distribution by NGI; format: physicochemical; details: Lot#UTA181028; Unprocessed
# Description: Determination of aerodynamic particle size distribution of milled CSP7 bulk powder. Around 3.5 mg of milled CSP7 powder was manually filled into size 3 HPMC capsules (Capsugel, Peapack, N.J.). CSP7 capsules were then aerosolized using a RS01 Monodose Dry Powder Inhaler (high resistance) and aerodynamic particle size distribution was measured by a Next Generation Impactor (NGI, MSP Corp., Shoreview, Minn.). Aerosols were produced over 4 s at an air flow rate of 60 L/min for the inhaler to achieve an inhalation volume of 4 L and 4 kPa pressure drop across the device. Before each run, NGI collection surfaces were coated with 5% (v/v) polysorbate 20 in methanol. One capsule was shot for each run and each sample was ran in triplicate repetitions (three capsules). After aerosolization, all collection surfaces were rinsed with specific volumes of 20 mM Tris buffer (pH 10.3) to collect the drug. Powders deposited in the capsule, device, adaptor, throat, pre-separator, and stages 1-MOC were extracted respectively.
# For each test, delivered dose is defined as the mass of CSP7 that entered the NGI. Geometric standard deviation (GSD), mass median aerodynamic diameter (MMAD) and fine particle fraction % (FPF %) are calculated and analyzed with Copley Inhaler Testing Data Analysis Software (CITDAS, Copley Scientific, Nottingham UK), based on the doses deposited on stages 1-MOC of NGI. The FPF is defined as the mass fraction of particles less than 5.0 μm with the delivered dose.
# (§1) Stability study for milled CSP7 (ammonium counterion) from Lot #UTA181028. The stability of milled CSP7 powder was investigated under different storage conditions for a period of up to 6 months. Milled CSP7 peptide is packaged as two forms, bulk milled powder and encapsulated milled powder. For storage as bulk milled powder, 0.21-0.24 g peptide is filled in 20 mL scintillation vials (Kimble®, DWK Life Sciences, Millville, N.J., US) and stored within a heat-sealed foil pouch (Impak Corp, Los Angeles, Calif., US) containing two bags of 1 g silica gel desiccant (Tyvek®, Sorbco Packaging LLC, Belen, N. Mex., US) in each pouch. Milled peptide powder is also encapsulated in size 3 HPMC capsules (Capsugel, Morristown, N.J., US) in a weight of about 11±5% mg, and 22-26 capsules are then packaged in HDPE bottles (Drug Plastic, Boyertown, Pa., US), followed by sealing the HDPE bottle within a foil pouch (without desiccant). Packages are stored in stability chambers at the following storage conditions: −20° C., 25° C./60% RH, and 40° C./75% RH. Samples are removed for testing at 1, 3, and 6 months (Table 38). For tests except the aerodynamic particle size distribution, encapsulated powder was removed from the capsule and mixed in a glass vial by rotating the vial.
# Aerodynamic particle size distribution: The aerodynamic particle size distribution was evaluated by performing NGI as described in Example 1, except that the powder weight in the tested capsule was 11±5% mg and pre-separator was removed in the assembly of the NGI in stability study.
# physchem = format: physicochemical
# Description: Solubility of neat (i.e., not milled) CSP7 ammonium counterion form (Table 35) was performed by adding excess amount of peptide powder into 3 mL different pH buffers (Table 36) and mixing on orbital shaker at 100 rpm for 24 hours at room temperature. The solubility and freeze-thaw samples were filtered through a 0.45 μm membrane prior to being assayed by performing High Performance Liquid Chromatography (HPLC, Thermo Fisher Scientific, Fair Lawn, N.J.). Briefly, samples were analyzed using Dionex 3000 HPLC system equipped with a Waters® reversed phase C18 column 2.5 μm, 150 mm×4.60 mm. The HPLC column was heated to 60° C. for testing, and the peptide was detected at a wavelength of 215 nm and a 1 mL/min flow rate. The two mobile phases were A (0.1% acetic acid in water) and B (0.1% acetic acid in acetonitrile). The injection volume was 20 μL and the standard curve was plotted from 0.01-1 mg/ml.
# [2] = Stability study of milled CSP7 (ammonium counterion): geometric particle size distribution (Sympatec HELOS, RODOS); format: physicochemical; details: not stored (Unprocessed / Initial)
# Description: as §1
# Geometric particle size distribution. GPSD of CSP7 powder was analyzed before and after milling using a Sympatec HELOS laser diffraction instrument (Sympatec GmbH, Germany) equipped with RODOS dispersion. Measurements are taken every 10 ms following powder dispersion at 3 bar. Measurements that are between 5 and 25% optical density were averaged to determine particle size distribution. The particle sizes by volume are reported at percentiles of 10, 50, and 90 (e.g., Dv 10, Dv 50, and Dv 90), respectively, as well as the percentages of particles falling into 1-5 μm size range. The results are shown in 41.
# [3] = pH-solubility of polypeptide variants; format: physicochemical
# Description: Solubility study of variants was performed by adding variants powders into solvent in concentration of 5 mg/ml and then vortexing for 3 min. Observe the appearance of solutions in 5 min. Add more powder (˜5 mg/ml each time) and repeat vortex and observe until precipitation or gelation occurs.
# [4] = Geometric particle size by Sympatec laser diffraction, wet dispersion; format: physicochemical
# Description: The particle sizes were next determined by Sympatec laser diffraction by a wet dispersion method. CSP7 was dissolved in ethanol +0.05% Tween 80 as dispersion medium and sonicated 10 min.
# [5] = system: Bleomycin Induced Lung Fibrosis; assay: Bleomycin induced lung fibrosis in mice, Ashcroft score; format: in vivo; details: dry powder inhalation after bleomycin induction, vs bleomycin only
# Description: Preparation and lysis of lung tissues. Female mice, ages 6-8 weeks are ordered from Jackson Laboratories, stock: 000664 C57BL/6J are cared for and housed according to IACUC guidelines. The following week, mice are weighed, anesthetized with an IP injection of 80 mg/kg Ketamine & 6 mg/kg Xylazine (approx. 115 ul/mouse) and subjected to a single intratracheal installation of bleomycin. Briefly, a 26G plastic catheter is inserted into the trachea and mice receive, via pipette, 2×20 ul installations (spaced 30 s apart to allow clearance from the airways) of 0.8 U/kg bleomycin (Biotang, Cat #RB003). Controls receive the same volume of saline only. Weight is tracked (approximately 10% weight loss occurs in injured animals) and animals are subjected to a dry powder inhalation protocol (CH technologies) daily for one week. […] Images were captured with Aperio AT2 high volume, digital whole slide scanner and lungs were scored for fibrotic injury according to modified Ashcroft scoring protocol (Hubner et al., 2008, incorporated herein by reference). […] The colormetric assay was read on a microplate reader (FilterMax F5, Molecular Devices, 580 nm). […]
# Lung tissues were homogenized and collagen content was analyzed using the Quickzyme collagen assay (FIG. 30). […]
smiles,measurement,setting,value
"CC(C)[C@H](NC(=O)[C@@H](NC(=O)[C@H](Cc1ccccc1)NC(=O)[C@@H](NC(=O)[C@@H](NC(=O)[C@@H](N)Cc1ccccc1)[C@@H](C)O)[C@@H](C)O)[C@@H](C)O)C(=O)N[C@H](C(=O)O)[C@@H](C)O [CSP7 (ammonium counterion), FTTFTVT] (H-FTTFTVT-OH; N-terminus and C-terminus assumed)",EF %,[1],92.8%
same,FPD,[1],4.2 mg
same,FPF %,[1],48.4%
same,GSD,[1],4.67
same,MMAD,[1],3.09 μm
same,solubility thermodynamic at 24 h,"physchem; pH 3, aqueous buffer",170 µg/mL
same,solubility thermodynamic at 24 h,"physchem; pH 4, aqueous buffer",70 µg/mL
same,solubility thermodynamic at 24 h,"physchem; pH 5, aqueous buffer",50 µg/mL
same,solubility thermodynamic at 24 h,"physchem; pH 6, aqueous buffer",70 µg/mL
same,solubility thermodynamic at 24 h,"physchem; pH 7, aqueous buffer",100 µg/mL
same,solubility thermodynamic at 24 h,"physchem; pH 8, aqueous buffer",380 µg/mL
same,solubility thermodynamic at 24 h,"physchem; pH 9, aqueous buffer",2300 µg/mL
same,solubility thermodynamic at 24 h,"physchem; pH 10, aqueous buffer",7870 µg/mL
same,solubility thermodynamic at 24 h,"physchem; pH 11, aqueous buffer",14400 µg/mL
same,% 1-5 μm,[2],47.0 ± 0.9%
same,Dv 10,[2],1.2 ± 0 μm
same,Dv 50,[2],4.5 ± 0.1 μm
same,Dv 90,[2],15.7 ± 0.8 μm
"CC(C)[C@H](NC(=O)[C@@H](NC(=O)[C@H](Cc1ccccc1)NC(=O)[C@@H](NC(=O)[C@@H](NC(=O)[C@@H](N)Cc1ccccc1)[C@@H](C)O)[C@@H](C)O)[C@@H](C)O)C(=O)N[C@H](C(=O)O)[C@@H](C)O [CSP7, FTTFTVT] (H-FTTFTVT-OH; N-terminus and C-terminus assumed)",solubility thermodynamic at 3 min,[3]; pH 4.5,150 µg/mL
same,solubility thermodynamic at 3 min,[3]; pH 5.5,160 µg/mL
same,solubility thermodynamic at 3 min,[3]; pH 6.5,160 µg/mL
same,solubility thermodynamic at 3 min,[3]; pH 7.5,310 µg/mL
same,solubility thermodynamic at 3 min,[3]; pH 8.5,1430 µg/mL
same,Dv 50,[4],29.0±0.8 μm
same,Ashcroft score,[5],lower
